The values below come from patent US8501981B2, “CXCR2 inhibitors” (SANOFI, priority 2006, dated 2013).

Broadly, the IC50 is the concentration that inhibits the measured activity by half.

The target of this assay is human CXCR2 (Homo sapiens (Human), UniProt P25025). As to the kind of experiment: Determination of CXCR2 inhibition: Calcium Fluorescence Assay (FLIPR). Type of assay: cell-based. To be noted: chemokine IL-8; CHO-K1 cells stably transfected with human CXCR2 and Gα16. From the text: Determination of CXCR2 inhibition: Calcium Fluorescence Assay (FLIPR)
Sequence of human CXCR2 (P25025 whole entry): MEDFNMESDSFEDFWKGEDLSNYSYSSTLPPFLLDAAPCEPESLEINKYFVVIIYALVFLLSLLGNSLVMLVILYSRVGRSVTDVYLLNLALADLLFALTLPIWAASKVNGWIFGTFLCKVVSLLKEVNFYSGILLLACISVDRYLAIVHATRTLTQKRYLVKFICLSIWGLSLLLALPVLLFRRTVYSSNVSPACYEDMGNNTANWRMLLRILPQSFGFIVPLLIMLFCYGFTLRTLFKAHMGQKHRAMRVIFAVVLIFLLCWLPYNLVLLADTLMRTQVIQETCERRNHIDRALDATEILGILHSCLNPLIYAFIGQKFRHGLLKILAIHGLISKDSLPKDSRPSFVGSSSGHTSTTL
The assay is based on the detection of intracellular calcium changes detected by the selective, calcium-chelating dye, Fluo-4 (Molecular Probes). A large fluorescence intensity increase is observed upon calcium association with Fluo-4. […] By co-expressing the CXCR2 receptor and the promiscuous Gα16 protein, activation of this chemokine receptor is directed into this phospholipase C cascade resulting in intracellular calcium mobilization.
The CHO—K1 cells stably transfected with human CXCR2 and the promiscuous Gα16 protein were maintained in a log phase of growth at 37° C. and 5% CO2 in the following media: Iscove's, 10% FBS, 1× Penicillin-Streptomycin, 400 μg/mL g418 and 350 μg/mL Zeocin. Approximately 24-48 hours prior to the assay, 20,000-30,000 cells/well were plated onto a 96-well black/clear bottomed assay plate (Becton Dickinson) with a well volume of 180 μl. For dye-loading the culture medium was carefully removed and replaced by 100 μl/well dye solution (4 μM Fluo-4 in 135 mM NaCl, 5 mM KCl, 1 mM magnesium sulphate, 5 mM glucose, 20 mM hepes, 2.5 mM probenecid; pH 7.4). Cells were incubated for 1 h at 37° C., and then washed 3× with buffer. After washing 90 μl buffer/well were left. Increasing concentrations of compound was added in 45 μl buffer (4× concentrated) followed by 10 min incubation at 37° C. Then the chemokine (10-100 nM) was applied in 45 μl buffer (4× concentrated) and the measurement performed for 2 min. The IC50 value of a compound was determined by calculation of % inhibition of total calcium response to the chemokine.
In the case of `CC(C)CC(C)(NC(=O)c1ccc2ccccc2c1OCCOc1ccccc1)C(=O)O` (centres unmarked) [Example 55, 2,4-Dimethyl-2-{[1-(2-phenoxy-ethoxy)-naphthalene-2-carbonyl]-amino}-pentanoic acid], the IC50 was 2.56 µM.

Regarding `CC(C)(NC(=O)c1ccc2ccccc2c1OCCc1ccccc1)C(=O)O` [Example 126, 2-Methyl-2-[(1-phenethyloxy-naphthalene-2-carbonyl)-amino]-propionic acid], the IC50 was less than 10 µM.

As to `O=C(NC1(C(=O)O)CCC1)c1ccc2ccccc2c1OCCC1CCCCC1` [Example 97, 1-{[1-(2-Cyclohexyl-ethoxy)-naphthalene-2-carbonyl]-amino}-cyclobutanecarboxylic acid], the IC50 was less than 10 µM.

Regarding `O=C(NC1(C(=O)O)CCC1)c1ccc2ccccc2c1OCCOc1ccccc1` [Example 100], the IC50 was less than 10 µM.

Turning to `CC(CCc1ccccc1)Oc1c(C(=O)NC2(C(=O)O)CCCC2)ccc2ccccc12` (centres unmarked) [Example 52, 1-{[1-(1-Methyl-3-phenyl-propoxy)-naphthalene-2-carbonyl]-amino}-cyclopentanecarboxylic acid], the IC50 is 0.92 µM.

On to `CC(C)(NC(=O)c1ccc2ccccc2c1OCCOc1ccc(F)c(Cl)c1)C(=O)O` [Example 73, 2-({1-[2-(3-Chloro-4-fluoro-phenoxy)-ethoxy]-naphthalene-2-carbonyl}-amino)-2-methyl-propionic acid], for which the IC50 amounted to 1.25 µM.

With `O=C(NC1(C(=O)O)CCC1)c1ccc2ccccc2c1OCCOc1ccc(F)cc1` [Example 105, 1-({1-[2-(4-Fluoro-phenoxy)-ethoxy]-naphthalene-2-carbonyl}-amino)-cyclobutanecarboxylic acid], the IC50 was 3.23 µM.

On to `CC(CCc1ccccc1)Oc1c(C(=O)NC(C)(C)C(=O)O)ccc2ccccc12` (centres unmarked) [Example 140, 2-Methyl-2-{[1-(1-methyl-3-phenyl-propoxy)-naphthalene-2-carbonyl]-amino}-propionic acid], for which the IC50 is less than 10 µM.

`CC(C)(NC(=O)c1ccc2ccccc2c1OCCCc1ccc(Cl)cc1)C(=O)O` [Example 106, 2-({1-[3-(4-Chloro-phenyl)-propoxy]-naphthalene-2-carbonyl}-amino)-2-methyl-propionic acid]: the IC50 was less than 10 µM.

Take `CC(C)(NC(=O)c1ccc2ccccc2c1C#CCCCc1ccccc1)C(=O)O` [Example 166, 2-Methyl-2-{[1-(5-phenyl-pent-1-ynyl)-naphthalene-2-carbonyl]-amino}-propionic acid]: the IC50 is 1.67 µM.

`C[C@@H](NC(=O)c1ccc2ccccc2c1OCCc1ccc(F)cc1)C(=O)O` [Example 130, (R)-2-({1-[2-(4-Fluoro-phenyl)-ethoxy]-naphthalene-2-carbonyl}-amino)-propionic acid]: the IC50 was less than 10 µM.

With `CC(C)(NC(=O)c1cc(F)c2ccccc2c1OCCOc1ccccc1)C(=O)O` [Example 20, 2-{[4-Fluoro-1-(2-phenoxy-ethoxy)-naphthalene-2-carbonyl]-amino}-2-methyl-propionic acid], the IC50 was less than 10 µM.

Turning to `CC(C)(NC(=O)c1cc(F)c2ccccc2c1OCCCc1ccccc1)C(=O)O` [Example 18, 2-{[4-Fluoro-1-(3-phenyl-propoxy)-naphthalene-2-carbonyl]-amino}-2-methyl-propionic acid], the IC50 is less than 10 µM.

Consider `CCCCC(CC)(NC(=O)c1ccc2ccccc2c1OCCCc1ccccc1)C(=O)O` (centres unmarked) [Example 116, 2-Ethyl-2-{[1-(3-phenyl-propoxy)-naphthalene-2-carbonyl]-amino}-hexanoic acid], for which the IC50 is less than 10 µM.

In the case of `CCCCC(CC)(NC(=O)c1ccc2ccccc2c1OCCCC1CCCCC1)C(=O)O` (centres unmarked) [Example 119, 2-{[1-(3-Cyclohexyl-propoxy)-naphthalene-2-carbonyl]-amino}-2-ethyl-hexanoic acid], the IC50 is less than 10 µM.

`CC(C)(NC(=O)c1ccc2ccccc2c1C#CCOc1ccccc1)C(=O)O` [Example 165, 2-Methyl-2-{[1-(3-phenoxy-prop-1-ynyl)-naphthalene-2-carbonyl]-amino}-propionic acid]: the IC50 is less than 10 µM.

Take `CCCCC(CC)(NC(=O)c1ccc2ccccc2c1OCCOc1ccccc1)C(=O)O` (centres unmarked) [Example 117, 2-Ethyl-2-{[1-(2-phenoxy-ethoxy)-naphthalene-2-carbonyl]-amino}-hexanoic acid]: the IC50 is less than 10 µM.

Turning to `CC(C)(NC(=O)c1cc(F)c2ccccc2c1OCCc1ccccc1)C(=O)O` [Example 17, 2-[(4-Fluoro-1-phenethyloxy-naphthalene-2-carbonyl)-amino]-2-methyl-propionic acid], the IC50 was less than 10 µM.

On to `CC(C)(NC(=O)c1sc2ccccc2c1OCCOc1ccccc1)C(=O)O` [Example 46, 2-Methyl-2-{[3-(2-phenoxy-ethoxy)-benzo[b]thiophene-2-carbonyl]-amino}-propionic acid], for which the IC50 was 1.76 µM.

In the case of `O=C(NC1(C(=O)O)CCC1)c1ccc2ccccc2c1OCCCc1ccccc1` [Example 99, 1-{[1-(3-Phenyl-propoxy)-naphthalene-2-carbonyl]-amino}-cyclobutanecarboxylic acid], the IC50 was less than 10 µM.
